Assay results as given in the supplement of paper PMC4862054.

Assays:
Test in all cases: normalised response (% of control), CellTiter-Glo; higher = more viable cells (100 = DMSO, 0 = benzethonium chloride kill control)
Settings in all cases: incubation time: 72 h
DU-4475 = tested on: DU-4475
Outline: (§1)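 Normalised signals at single concentrations make up the values. They come from breast cancer cell lines seeded (20 µl suspension) into 384-well plates with compound at 5 concentrations in 10-fold steps over a compound-specific 10,000-fold range, incubated 72 h, and read for CellTox Green fluorescence then CellTiter-Glo luminescence. Each plate was normalised to 0.1 % DMSO (100) and a positive kill control (0).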

MDA-MB-436 = tested on: MDA-MB-436
Outline: as §1

CAL-85-1 = tested on: CAL-85-1
Outline: as §1

MCF-10A = tested on: MCF-10A
Outline: as §1

CAL-120 = tested on: CAL-120
Outline: as §1

Hs578T = tested on: Hs578T
Outline: as §1

MDA-MB-231 = tested on: MDA-MB-231
Outline: as §1

HCC1937 = tested on: HCC1937
Outline: as §1

SK-BR-3 = tested on: SK-BR-3
Outline: as §1

MDA-MB-468 = tested on: MDA-MB-468
Outline: as §1

BT-549 = tested on: BT-549
Outline: as §1

HCC1143 = tested on: HCC1143
Outline: as §1

CAL-148 = tested on: CAL-148
Outline: as §1

HDQ-P1 = tested on: HDQ-P1
Outline: as §1

CAL-51 = tested on: CAL-51
Outline: as §1

BT-474 = tested on: BT-474
Outline: as §1

MDA-MB-453 = tested on: MDA-MB-453
Outline: as §1

HCC1599 = tested on: HCC1599
Outline: as §1

MFM-223 = tested on: MFM-223
Outline: as §1

Row | SMILES | normalised response (DU-4475) [%] | normalised response (MDA-MB-436) [%] | normalised response (CAL-85-1) [%] | normalised response (MCF-10A) [%] | normalised response (CAL-120) [%] | normalised response (Hs578T) [%] | normalised response (MDA-MB-231) [%] | normalised response (HCC1937) [%] | normalised response (SK-BR-3) [%] | normalised response (MDA-MB-468) [%] | normalised response (BT-549) [%] | normalised response (HCC1143) [%] | normalised response (CAL-148) [%] | normalised response (HDQ-P1) [%] | normalised response (CAL-51) [%] | normalised response (BT-474) [%] | normalised response (MDA-MB-453) [%] | normalised response (HCC1599) [%] | normalised response (MFM-223) [%]
1 | COC1=C2C[C@@H](C)C[C@H](OC)[C@H](O)[C@@H](C)/C=C(\C)[C@H](OC(N)=O)[C@@H](OC)/C=C\C=C(/C)C(=O)NC(=CC1=O)C2=O [Geldanamycin] (10 nM) | 105 | 104 | 99.6 | 106 | 102 | 108 | 105 | 99.9 | 110 | 105 | 97.3 | 101 | 113 | 100 | 112 | 106 | 106 | 101 | 105
2 | COC(=O)C[C@](O)(CCCC(C)(C)O)C(=O)O[C@@H]1C(OC)=C[C@]23CCCN2CCc2cc4c(cc2[C@H]13)OCO4 [Omacetaxine] (10 nM) | 75.5 | 88.7 | 98.6 | 123 | 103 | 108 | 105 | 100 | 110 | 101 | 104 | 109 | 115 | 96.1 | 94 | 103 | 109 | 92.5 | 106
3 | CCCC(CCC)C(=O)O [Valproic acid] (100 nM) | 96.2 | 106 | 97.1 | 101 | 103 | 104 | 105 | 96.4 | 95.8 | 97.1 | 99.7 | 102 | 102 | 101 | 103 | 98.9 | 109 | 88.9 | 95.5
4 | COc1ncc(-c2ccc3nccc(-c4ccnnc4)c3c2)cc1NS(=O)(=O)c1ccc(F)cc1F (1 nM) | 103 | 93.1 | 101 | 94.2 | 93 | 101 | 92.9 | 95.3 | 84.6 | 109 | 93.5 | 101 | 105 | 81.3 | 111 | 91.6 | 98.2 | 95.3 | 109
5 | Cn1c(=O)c(F)c(Nc2ccc(I)cc2F)c2c(=O)n(C[C@@H](O)CO)cnc21 [TAK-733] (1 nM) | 92.4 | 98.8 | 98.3 | 83 | 95 | 98.6 | 108 | 98.1 | 104 | 100 | 99.2 | 103 | 105 | 83.7 | 86.9 | 45.1 | 98.7 | 102 | 113
6 | C[C@@]1(C(=O)Nc2ccc(F)nc2)CCCN1c1nc(Nc2cc(C3CC3)n[nH]2)c2cccn2n1 (10 nM) | 99.5 | 92.5 | 91.6 | 67.5 | 91.2 | 92.4 | 88.1 | 95.4 | 71.5 | 86.8 | 88 | 97.5 | 87.3 | 85.4 | 99.3 | 90.7 | 92.8 | 96.1 | 83.4
7 | CN1CCN(c2ccc3nc(-c4c(N)c5c(F)cccc5[nH]c4=O)[nH]c3c2)CC1 [Dovitinib] (10 nM) | 97.8 | 98.1 | 91.5 | 98.3 | 95.6 | 97.6 | 98.6 | 101 |  | 97 | 91.8 | 102 | 94.9 | 96.1 | 77.6 | 102 | 88.4 | 102 | 95.1
8 | Cn1cnc2c(F)c(Nc3ccc(Br)cc3F)c(C(=O)NOCCO)cc21 [MEK-162] (1 nM) | 99.7 | 101 | 95.7 | 96.1 | 100 | 95.4 | 99 | 96.3 | 116 | 103 | 99.8 | 99.6 | 102 | 93.2 | 108 | 106 | 103 | 99.7 | 103
9 | Nc1nccc(-c2c(-c3ccc(F)cc3)ncn2C2CCCCC2)n1 (1 nM) | 102 | 100 | 98.8 | 110 | 95.7 | 104 | 105 | 105 | 108 | 94.1 | 109 | 109 | 105 | 101 | 119 | 97.9 | 95.5 | 104 | 102
10 | COc1cccc2c1C(=O)c1c(O)c3c(c(O)c1C2=O)C[C@@](O)(C(C)=O)C[C@@H]3O[C@H]1C[C@H](N)[C@H](O)[C@H](C)O1 [Daunorubicin] (1 nM) | 107 | 101 | 96.2 | 107 | 96.9 | 112 | 105 | 99.9 |  | 105 | 94.2 | 109 | 109 | 104 | 122 | 106 | 108 | 109 | 108
